Data as given in patent publication US12410220B2, “Modulation of mammalian cell lineage by synthetic immodulins” (priority 2021, dated 2025).
Marks after values point to notes of the source that are not given here. Square brackets hold non-standard residues; d marks the D form. Ends that are not written are not given here. Peptide text beside a SMILES is read from it. * marks the point of attachment. Pentanoyl(2-Pr) = CCCC(CCC)C(=O)*; Decanoyl = CCCCCCCCCC(=O)*

Key:
[1] = tested on: HFF-1 human fibroblast cell line; test: Collagen-1 ELISA in HFF-1 dermal fibroblasts; type: cell-based; conditions: peptide 2 uM, 72 hour incubation
Description: Immodulin peptides have potential untility in the field of cosmetics. HFF-1 human fibroblast cell line was obtained from the American Type Culture Collection (ATCC). Cells were grown in a T-75 flask in DMEM Medium containing 10% fetal bovine serum and penicillin-streptomycin at 37° C. in a humidified, 5% CO2 incubator. Cells (100 µl, 2,000 cells/well) were plated in a 96-well plate and incubated overnight at 37° C. in a humidified, 5% CO2 incubator. Next day, 10 µl/well of compounds were added (quadruplicate wells). After 72 hour incubation with the compound, supernatants were collected for Collagen-1 ELISA assay and cell viability was measured in a luminometer after the addition of 100 IL/well CellTiterGlo reagent (Promega Inc, Madison, WI) as recommended by the manufacturer. Collagen stimulating activity of immodulin peptides in HFF-1 dermal fibroblasts: Peptides were added to cells at 2 uM. COL1 immunoreactivity was measured in the supernatants of cultured cells by ELISA using a rabbit monoclonal anti-COL1 primary antibody (Abcam, Cambridge, MA). Control (buffer) value of immunoreactivity was set to 100.

[2] = Ferric iron-binding assay of biotinylated immodulin peptides; conditions: N-terminally biotinylated peptide, 400 ng per well, 60 min room temperature; immX3AVD = 100
From the text: N-terminally biotinylated versions of the peptides listed below were used in ferric iron-binding assays involving either an Alexa488-labeled streptavidin protocol (Binding Assay 1) or FITC-NTA assay (Binding Assay 2). Fluorescence was standardized to binding with immX3AVD control peptide (100) and the average of multiple experiments using both protocols is shown. P values are shown relative to the control immX3AVD peptide (**<0.05). D-amino acid residues are underlined in the sequences and the extension tripeptide of immX peptides is shown in bold font. Binding Assay 1 was done as follows: NTA coated 96-well plates (G-Biosciences, St. Louis, MO) were charged with ferric chloride and contacted with equimolar biotinylated peptide: streptavidin-A488 complex (400 ng peptide per well) for 60 min at room temperature, washed with phosphate-buffered saline (PBS) and read at 525 nm in a fluorescence counter. Binding Assay 2 was done as follows: Streptavidin coated 96-well plates (G-Biosciences, St. Louis, MO) were contacted with 400 ng peptide per well in PBS buffer for 60 minutes at room temperature, washed in PBS, then contacted with FITC-NTA (TRC, Toronto, Canada) complexed with equimolar ferric chloride (10× molar equivalent per well) for 60 min at room temperature, washed with PBS and read at 525 nm in a fluorescence counter.

[3] = Experiment 4D binding to FITC-labelled heparin; conditions: biotinylated peptide 1 ug/well; 1 ug FITC-labelled heparin, 90 minutes
Description: (§1) Streptavidin-coated 96-well plates (G-Biosciences, St. Louis, MO) were pre-treated with biotinylated peptides [see Example 1 for key] at 1 ug/well, at room temperature for 60 minutes. The plate was washed with PBS buffer and then 1 ug FITC-labelled heparin or hyaluronic acid in 100 uL PBS buffer was added per well (all tests in quadruplicate). Incubation proceeded for 90 minutes at room temperature, followed by two PBS washes. The plate was read in a standard laboratory fluorometer (488/525 nm exitation/[…]) and the counts normalized for immX3 peptide binding=100. Values statistically above background are shown in bold font. **p<0.05 versus immX3AVD.

[4] = Experiment 4D binding to FITC-labelled hyaluronic acid; conditions: biotinylated peptide 1 ug/well; 1 ug FITC-labelled hyaluronic acid, 90 minutes
Description: as §1

[5] = tested on: rat scald-endotoxemia model; test: Experiment 5B rat scald-endotoxemia model; type: in vivo, Sprague Dawley rats
Description: Experiment 5B. This study explores the effect of immX extensions on sV-nephrilin (SEQ ID NO:31) vs V-nephrilin, as well as in a longer peptide also containing the immX extension (Traumatin-3N1A: SEQ ID NO:35) on in vivo efficacy in a rat scald-endotoxemia model. Animals were treated with peptides using a widely used protocol previously described (see, for example, U.S. Pat. No. 10,369,191). Adult Sprague Dawley rats of both sexes (250-300 gm, Charles River Laboratories, Wilmington, MA, USA) were injected with peptide plus equimolar ferric iron once daily by subcutaneous bolus injection, days 1-7; Treatment group sizes were (n=6): group S=sham-treated; group B=burn+vehicle; group V=burn+1 mg/kg V-nephrilin (V); group sV=burn+1 mg/kg sV-nephrilin (immX3N1sV); group T=burn+1 mg/kg Traumatin-3N1A. The first dose was administered after completion of the scald procedure. Injection volume was 400 uL. Control animals received the same volume of vehicle. On Day 8, animals received a single intraperitoneal injection of 2.5 mg/kg lipopolysaccharide (LPS; Sigma Cat #L-2880) and animals were then monitored by oximeter (MouseOx, Starr Life Sciences) for 4 hours, when respiratory distress (breath distension*breaths/min) was assessed relative to baseline. This was followed by sacrifice and tissue collection as in the published protocol, except that bronchoalveolar lavage (BAL) was collected and cells were recovered from BAL by centrifugation. These cells were stained with fluorescently-labeled antibodies for flow cytometry in order to ascertain granulocyte counts, as shown below. Results of the peptide comparison are presented in the table below. *p<0.05 vs “B” control. #p<0.05 vs “V” group.

[6] = Day 1, burn + 1 mg/kg peptide plus equimolar ferric iron, subcutaneous once daily
[7] = Day 8, after LPS, burn + 1 mg/kg peptide days 1-7

Molecule	COL1 immunoreactivity in supernatants, control (buffer) set to 100 [1]	Ferric iron binding, fluorescence standardized to immX3AVD control peptide (100), Avg ± SD [2]	other results
CCCCCCCCCC(=O)N[C@@H](CCCCN)C(=O)N[C@@H](CCCCN)C(=O)NCC(=O)N[C@@H](Cc1ccccc1)C(=O)N[C@@H](Cc1ccc(O)cc1)C(=O)N[C@@H](CCCCN)C(=O)N[C@@H](CCCCN)C(=O)N[C@@H](CCCCN)C(=O)N[C@@H](CCC(N)=O)C(=O)N[C@@H](CS)C(=O)N[C@@H](CCCNC(=N)N)C(=O)N1CCC[C@H]1C(=O)N[C@@H](CO)C(=O)N[C@@H](CCCCN)C(=O)NCC(=O)N[C@@H](CCCNC(=N)N)C(=O)N[C@@H](CCCCN)C(=O)N[C@@H](CCCNC(=N)N)C(=O)NCC(=O)N[C@@H](Cc1ccccc1)C(=O)N[C@@H](CS)C(=O)N[C@@H](Cc1c[nH]c2ccccc12)C(=O)O [imm3dec] (Decanoyl-KKGFYKKKQCRPSKGRKRGFCW-OH; C-terminus assumed)	114	–	–
CCCC(CCC)C(=O)N[C@@H](CCCCN)C(=O)N[C@@H](CCCCN)C(=O)NCC(=O)N[C@@H](Cc1ccccc1)C(=O)N[C@@H](Cc1ccc(O)cc1)C(=O)N[C@@H](CCCCN)C(=O)N[C@@H](CCCCN)C(=O)N[C@@H](CCCCN)C(=O)N[C@@H](CCC(N)=O)C(=O)N[C@@H](CS)C(=O)N[C@@H](CCCNC(=N)N)C(=O)N1CCC[C@H]1C(=O)N[C@@H](CO)C(=O)N[C@@H](CCCCN)C(=O)NCC(=O)N[C@@H](CCCNC(=N)N)C(=O)N[C@@H](CCCCN)C(=O)N[C@@H](CCCNC(=N)N)C(=O)NCC(=O)N[C@@H](Cc1ccccc1)C(=O)N[C@@H](CS)C(=O)N[C@@H](Cc1c[nH]c2ccccc12)C(=O)O [imm3vlp] ({Pentanoyl(2-Pr)}-KKGFYKKKQCRPSKGRKRGFCW-OH; C-terminus assumed)	157**	–	–
CC(C)[C@H](NC(=O)[C@H](Cc1ccccc1)NC(=O)[C@H](Cc1c[nH]c2ccccc12)NC(=O)[C@H](CS)NC(=O)[C@H](Cc1ccccc1)NC(=O)CNC(=O)[C@H](CCCNC(=N)N)NC(=O)[C@H](CCCCN)NC(=O)[C@H](CCCNC(=N)N)NC(=O)CNC(=O)[C@H](CCCCN)NC(=O)[C@H](CO)NC(=O)[C@@H]1CCCN1C(=O)[C@H](CCCNC(=N)N)NC(=O)[C@H](CS)NC(=O)[C@H](CCC(N)=O)NC(=O)[C@H](CCCCN)NC(=O)[C@H](CCCCN)NC(=O)[C@H](CCCCN)NC(=O)[C@H](Cc1ccc(O)cc1)NC(=O)[C@H](Cc1ccccc1)NC(=O)CNC(=O)[C@H](CCCCN)NC(=O)[C@@H](N)CCCCN)C(=O)N[C@@H](CO)C(=O)O [immX3FVS] (H-KKGFYKKKQCRPSKGRKRGFCWFVS-OH; N-terminus and C-terminus assumed)	–	78.3 ± 6.5**	–
(bex)-KKGFYKKKQCRPSKGRKRGFCW (not fully specified (N-terminus); printed as (bex)-KKGFYKKKQCRPSKGRKRGFCW; cysteine pairing not given here) [imm3bex]	102	–	–
(cin)-KKGFYKKKQCRPSKGRKRGFCW ({cinnamic acid}-KKGFYKKKQCRPSKGRKRGFCW; cysteine pairing not given here) [imm3cin, imm3 N-terminally conjugated with cinnamic acid]	106	–	–
(isf)-KKGFYKKKQCRPSKGRKRGFCW ({isoferulic acid}-KKGFYKKKQCRPSKGRKRGFCW; cysteine pairing not given here) [imm3isf, imm3 N-terminally conjugated with isoferulic acid]	131*	–	–
(rhn)-KKGFYKKKQCRPSKGRKRGFCW (rhein-KKGFYKKKQCRPSKGRKRGFCW; cysteine pairing not given here) [imm3rhn, imm3 N-terminally conjugated with rhein]	68**	–	–
AFNSYELGSKGFYKKKQCRPSKGRKRGFCW [imm3K9]	155**	–	–
AFNSYELGSKGFYKKKQCRPSKGRKRGFCWAVDKY [imm3K9c]	158**	–	–
AFNSYELGSKKGFYKKKQCRPSKGRKRGFCW [imm3K9.1]	156**	–	–
FNSYELGSLKKGFYKKKQCRPSKGRKRGFCW [imm3K8]	98	–	–
KKGFYKKKQCRPSKGRKRGFCW(dS)(dV)(dD) (KKGFYKKKQCRPSKGRKRGFCW[dS][dV][dD]; cysteine pairing not given here) [immX3dSdVdD]	–	133.6±	–
KKGFYKKKQCRPSKGRKRGFCW[dA]VD (cysteine pairing not given here) [immX3dAVD]	–	108.1 ± 1.5	–
KKGFYKKKQCRPSKGRKRGFCW[dA][dV][dD] (cysteine pairing not given here) [immX3dAdVdD]	–	102.4 ± 9.1	Heparin binding, counts normalized for immX3 peptide binding=100 [3]: 55.5 ± 5.7**; Hyaluronate binding, counts normalized for immX3 peptide binding=100 [4]: 104.2 ± 14.7
RKGFYKRKQCKPSRGRKRGICWAVD [immX5AVD]	–	88.1 ± 14.2	Heparin binding, counts normalized for immX3 peptide binding=100 [3]: 68.7 ± 26.2; Hyaluronate binding, counts normalized for immX3 peptide binding=100 [4]: 113.9 ± 15.7
RNGNFHPKQCHPALDGQRGKCWAVD [immX4AVD]	–	1.2 ± 1.3**	Heparin binding, counts normalized for immX3 peptide binding=100 [3]: 7.3 ± 17.1; Hyaluronate binding, counts normalized for immX3 peptide binding=100 [4]: 61.1 ± 34.1
Traumatin-3N1A: a longer peptide also containing the immX extension (SEQ ID NO:35) (RGVTEDYLRLETLVQKVVSPYLKGFYKKKQCRPSKGRKRGFCWAVD)	–	–	Plasma IL-6 (pg/ml) [5, 6]: 22.5 ± 11*^ pg/ml; Plasma albumin mg/ml (24 hr IR) [5, 6]: 7.6 ± 0.9* mg/ml; Change in body weight (Pct vs Day 1) ([5]; Day 5, burn + 1 mg/kg peptide plus equimolar ferric iron, subcutaneous once daily): −5.3 ± 3.5* Pct; Respiratory distress (Gp. “S” = 100) ([5]; Day 8, 4 hours after LPS, burn + 1 mg/kg peptide days 1-7): 197 ± 39*#; Wet/dry lung weight (corrected for body weight) ([5]; Day 8, after LPS 2.5 mg/kg ip, burn + 1 mg/kg peptide days 1-7): 6.74 ± 0.61*; BAL fluid IL1-beta (pg/ml) [5, 7]: 45.7 ± 24*# pg/ml; Plasma OHDG (ng/ml) [5, 7]: 1.24 ± 0.4* ng/ml; Plasma creatinine (mg/dL) [5, 7]: 0.64 ± 0.2* mg/dL
